Reference: the C3SDB collision cross section collection

Conditions: instrument: DT, stepped-field

Row | SMILES | collision cross section (N2) ([M+H]+) [Å²] | collision cross section (N2) ([M+Na]+) [Å²] | collision cross section (N2) ([M+2Na-H]+) [Å²] | other results
1 | CCCCCCCCCCCCCCCCCCCCCC(=O)N[C@@H](CO[C@@H]1O[C@H](CO)[C@@H](O)C(O)C1O)[C@H](O)CCCCCCCCCCCCCCC (some centres not stated) [GlcCer(40:00)] | 296.24 | 297.72 |  | collision cross section (N2) ([M+Cl]-): 293.17 Å²; collision cross section (N2) ([M+HCOO]-): 298.07 Å²
2 | CCCCCCCCCCCCC=CC[C@@H](O)[C@H](CO[C@@H]1O[C@H](CO)[C@@H](O)C(O)C1O)NC(=O)CC=CCCCCCCCCCCCCCCCCCCC (some centres not stated) [GlcCer(41:02)] |  | 296.1 |  | 
3 | CCCCCCCCCCCCC=CC[C@@H](O)[C@H](CO[C@@H]1O[C@H](CO)[C@@H](O)C(O)C1O)NC(=O)CC=CCC=CCCCCCCCCCCCCCCCCC (some centres not stated) [GlcCer(42:03)] |  | 297.28 |  | 
4 | CCCCCCCCCCCCC=CC[C@@H](O)[C@H](CO[C@@H]1O[C@H](CO)[C@@H](O)C(O)C1O)NC(=O)CC=CCC=CCCCCCCCCCCCCCCCCCC (some centres not stated) [GlcCer(43:03)] |  | 300.75 |  | 
5 | CCCCCCCCCCCCC=CC[C@@H](O)[C@H](CO[C@@H]1O[C@H](CO)[C@@H](O)C(O)C1O)NC(=O)CCCCCCCCCCCCCCCCCCCCCCCCCCCCCC (some centres not stated) [GlcCer(49:01)] |  |  |  | collision cross section (N2) ([M+Na-2H2O]+): 317.53 Å²
6 | CCCCCCCCCCCCC=CC[C@@H](O)[C@H](CO[C@@H]1O[C@H](CO)[C@@H](O)C(O)C1O)NC(=O)CC=CCC=CCC=CCCCCCCCCCCCCCCCCCCCCCC (some centres not stated) [GlcCer(50:04)] |  |  |  | collision cross section (N2) ([M+H-2H2O]+): 314.25 Å²
7 | CCCCC/C=C\C/C=C\CCCCCCCCCCCC(=O)O[C@H](COC(=O)CCCCCCCCCCCC)COP(=O)(O)O [PA(35:02)] |  |  | 270 | 
8 | CC/C=C\C/C=C\C/C=C\C/C=C\CCCCC(=O)O[C@H](COC(=O)CCCCCCC/C=C\CCCCCCCC)COP(=O)(O)O [PA(36:05)] |  |  | 269.3 | 
9 | CC/C=C\C/C=C\C/C=C\C/C=C\C/C=C\C/C=C\CCC(=O)O[C@H](COC(=O)CCCCCCCCCCCCCCCCC)COP(=O)(O)O [PA(40:06)] |  |  | 280.58 | 
10 | CCCCCCCCCCCCCCCCCCCC(=O)OC[C@H](COP(=O)([O-])OCC[N+](C)(C)C)OC(=O)CCCCCCCCCCC [PC(32:00)] | 278.4 | 280.56 |  | collision cross section (N2) ([M+HCOO]-): 286.82 Å²
11 | CCCCCCCCCCCCCCCCCCCCCCCC(=O)O[C@H](COC(=O)CCCCCCCCC)COP(=O)([O-])OCC[N+](C)(C)C [PC(34:00)] |  |  | 286.12 | 
12 | CCCCC/C=C\C=C/CCCCCCCCC(=O)O[C@H](COC(=O)CCCCCCCCCCCCCCCCC)COP(=O)([O-])OCC[N+](C)(C)C [PC(36:02)] | 285.92 | 288.63 | 290.39 | collision cross section (N2) ([M+Cl]-): 295.12 Å²; collision cross section (N2) ([M+HCOO]-): 295.45 Å²; collision cross section (N2) ([M+K]+): 289.17 Å²
13 | CC/C=C/C=C/C=C/C=C/CCCCCCCC(=O)O[C@H](COC(=O)CCCCCCCCCCCCCCCCC)COP(=O)([O-])OCC[N+](C)(C)C [PC(36:04)] |  | 285.05 |  | collision cross section (N2) ([M+Cl]-): 293.08 Å²; collision cross section (N2) ([M+HCOO]-): 292.86 Å²
14 | CC/C=C\C/C=C\C/C=C\C/C=C\C/C=C\CCCCCC(=O)O[C@H](COC(=O)CCCCCCCCCCCCCCC)COP(=O)([O-])OCC[N+](C)(C)C [PC(38:05)] |  |  |  | collision cross section (N2) ([M+Cl]-): 297.1 Å²; collision cross section (N2) ([M+HCOO]-): 297.3 Å²
15 | CC/C=C\C/C=C\C/C=C\C/C=C\C/C=C\CCCCCC(=O)O[C@H](COC(=O)CCCCCCCCCCCCCCCCC)COP(=O)([O-])OCC[N+](C)(C)C [PC(40:05)] |  | 295.77 |  | 
16 | CCCCCCCC/C=C\CCCCCCCC(=O)O[C@H](COC(=O)CCCCCCCCCCCCCCCCC)COP(=O)(O)OCCN [PE(36:01)] | 277.02 | 282.21 | 283.74 | collision cross section (N2) ([M-H]-): 273.62 Å²
17 | CCCCC/C=C\CCCCCCCC(=O)OC[C@H](COP(=O)(O)OCCN)OC(=O)CCCCCCCCCCCCCCCCCCCCC [PE(37:01)] |  | 284.35 | 286.74 | 
18 | CCCCCCCC/C=C\CCCCCCCC(=O)OC[C@H](COP(=O)(O)OCCN)OC(=O)CCCCCCC/C=C\CCCCCCCCC [PE(37:02)] |  | 282.21 | 285.18 | 

Row | SMILES | collision cross section (N2) ([M+H]+) [Å²] | collision cross section (N2) ([M+Na]+) [Å²] | collision cross section (N2) ([M+2Na-H]+) [Å²] | other results
19 | CCCCC/C=C\C/C=C\CCCCCCCCCCCC(=O)O[C@H](COC(=O)CCCCCCCCCCCCCCC)COP(=O)(O)OCCN [PE(38:02)] |  |  | 288.8 | 
20 | CC/C=C\C/C=C\C/C=C\C/C=C\CCCCC(=O)O[C@H](COC(=O)CCCCCCCCCCCCCCCCCCC)COP(=O)(O)OCCN [PE(38:04)] |  |  | 284.96 | collision cross section (N2) ([M+K]+): 284.45 Å²; collision cross section (N2) ([M-H]-): 276.04 Å²
21 | CCCCC/C=C\C/C=C\C/C=C\CCCCC(=O)OC[C@H](COP(=O)(O)OCCN)OC(=O)CCCCCCCCCCC/C=C\C/C=C\CCCCC [PE(40:05)] |  | 289.38 | 289.53 | collision cross section (N2) ([M-H]-): 280.89 Å²
22 | CCCCCC/C=C\CCCCCCCC(=O)O[C@H](COCCCCCCCCCCCCCCCCCC)COP(=O)(O)OCCN [PE(o34:01)] |  | 275.79 | 276.22 | 
23 | CCCCCCCC/C=C\CCCCCCCCCC(=O)O[C@H](COCCCCCCCCCCCCCCCC)COP(=O)(O)OCCN [PE(o36:01)] | 277.08 | 281.66 | 283.23 | 
24 | CCCCC/C=C\C/C=C\CCCCCCCC(=O)O[C@H](COCCCCCCCCCCCCCCCCCC)COP(=O)(O)OCCN [PE(o36:02)] | 274.98 | 280.37 | 280.9 | 
25 | CC/C=C\C/C=C\C/C=C\C/C=C\C/C=C\C/C=C\CCC(=O)O[C@H](COCCCCCCCCCCCCCCCC)COP(=O)(O)OCCN [PE(o38:06)] |  |  | 280.85 | 
26 | CC/C=C\C/C=C\C/C=C\C/C=C\C/C=C\C/C=C\CCC(=O)O[C@H](COCCCCCCCCCCCCCCCCCC)COP(=O)(O)OCCN [PE(o40:06)] |  |  | 288.19 | 
27 | CCCCCCCC/C=C\CCCCCCCC(=O)OC[C@H](COP(=O)(O)OC[C@H](N)C(=O)O)OC(=O)CCCCCCC/C=C\CCCCCCCC [PS(36:02)] | 280.92 |  | 285.97 | collision cross section (N2) ([M+K]+): 285.23 Å²; collision cross section (N2) ([M-H]-): 281.82 Å²
28 | CCCCCCCCCC/C=C\CCCCCCCCCC(=O)O[C@H](COC(=O)CCCCCCCCCCCCCCC)COP(=O)(O)OC[C@H](N)C(=O)O [PS(38:01)] | 289.63 |  | 295.38 | 
29 | CCCCC/C=C\C/C=C\CCCCCCCCCCCC(=O)O[C@H](COC(=O)CCCCCCC/C=C\CCCCCC)COP(=O)(O)OC[C@H](N)C(=O)O [PS(38:03)] |  |  |  | collision cross section (N2) ([M-H]-): 286.53 Å²
30 | CCCCC/C=C\C/C=C\C/C=C\C/C=C\CCCCCC(=O)O[C@H](COC(=O)CCCCCCCCCCCCCCCC)COP(=O)(O)OC[C@H](N)C(=O)O [PS(39:04)] |  |  | 291.95 | 
31 | CCCCCCCC/C=C\CCCCCCCCCC(=O)OC[C@H](COP(=O)(O)OC[C@H](N)C(=O)O)OC(=O)CCCCCCCCCCCCCCCCCCC [PS(40:01)] | 295.93 |  | 301.13 | 
32 | CCCCC/C=C\C/C=C\C/C=C\CCCCC(=O)OC[C@H](COP(=O)(O)OC[C@H](N)C(=O)O)OC(=O)CCCCCCCCC/C=C\CCCCCCCCCC [PS(40:04)] | 291.15 | 295.22 | 298.27 | collision cross section (N2) ([M+K]+): 295.44 Å²; collision cross section (N2) ([M-H]-): 291.3 Å²
33 | CCCCC/C=C\C/C=C\C/C=C\C/C=C\CCCC(=O)O[C@H](COC(=O)CCCCCCCCC/C=C\CCCCCCCC)COP(=O)(O)OC[C@H](N)C(=O)O [PS(40:05)] | 289.6 | 293.82 | 297.17 | collision cross section (N2) ([M+K]+): 294.22 Å²; collision cross section (N2) ([M-H]-): 290.27 Å²
34 | CC/C=C\C/C=C\C/C=C\C/C=C\C/C=C\C/C=C\CCC(=O)O[C@H](COC(=O)CCCCCCC/C=C\C/C=C\C/C=C\CC)COP(=O)(O)OC[C@H](N)C(=O)O [PS(40:09)] |  |  | 284.82 | 
35 | CCCCC/C=C\C/C=C\CCCCCCCCCCCC(=O)O[C@H](COC(=O)CCCCCCCCCCCCCCCCCCC)COP(=O)(O)OC[C@H](N)C(=O)O [PS(42:02)] | 299.5 | 302 | 306.07 | 
